Results reported in patent US20260232823A1, “AZA-BENZAZEPINE IMMUNOCONJUGATES, AND USES THEREOF” (BOLT BIOTHERAPEUTICS, INC., priority 2023, published 2026).
Each block holds one compound with its values, some of them ahead of it.

Assays:
[1] = hydrolysis of the amidine group to lactam in PBS buffer; format: physicochemical
Experimental: (§1) The hydrolytic degradation rates of benzazepine and 7-azabenzazepine compounds were directly compared in PBS (pH 7.4) at 37° C. to mimic in vivo effects and in formulation buffer to simulate storage and lifetime effects. […] The half-lives (t½) of aza-benzazepine compounds azaBa-6 and azaBz-8 were 30 days and 40 days, respectively. […] The amount of lactam is normalized for each sample at the start (to) for easier rate comparisons. The 7-aza modification is stabilizing in PBS and formulation buffer by about 5-fold relative to the corresponding benzazepine compounds.

[2] = degradation of amidine to lactam in human plasma; format: in vitro ADME; conditions: human plasma at room temperature after 24 hours
Experimental: Amidine benzazepine comparator compound CBz-3 (Table 1b) degrades in PBS buffer (pH 7.4) at 40° C. to produce lactam benzazepine comparator compound CBz-5 (Table 1b) at 90% at 17 days. […] In human plasma at room temperature after 24 hours, 15% of CBz-3 degrades to CBz-5.

[3] = tested on: human TLR7 or human TLR8; experiment: HEK Reporter Assay (TLR 7/8, receptor not separated); format: cell-based; conditions: lactam comparator compounds
Source text: It was discovered that the amidine functional group of benzazepine adjuvant compounds, moieties conjugated to antibodies as immunoconjugates (WO 2020/252294; WO 2021/067242; WO 2022/125884; WO 2022/125891; WO 2022/125904; WO 2022/125908; WO 2022/125915), undergoes hydrolysis to the lactam functional group.
(§2) HEK293 reporter cells expressing human TLR7 or human TLR8 were purchased from Invivogen and vendor protocols were followed for cellular propagation and experimentation. Briefly, cells were grown to 80-85% confluence at 5% CO2 in DMEM supplemented with 10% FBS, Zeocin, and Blasticidin. Cells were then seeded in 96-well flat plates at 4×10^4 cells/well with substrate containing HEK detection medium and immunostimulatory molecules. Activity was measured using a plate reader at 620-655 nm wavelength.

[4] = biological target: T1, human TLR7 (Homo sapiens, UniProt Q9NYK1); experiment: HEK Reporter Assay, HEK293 NFKB reporter cells expressing human TLR7; format: cell-based
T1 construct: host or cells: HEK293 NFKB reporter cells
T1 sequence (Q9NYK1 27-1049): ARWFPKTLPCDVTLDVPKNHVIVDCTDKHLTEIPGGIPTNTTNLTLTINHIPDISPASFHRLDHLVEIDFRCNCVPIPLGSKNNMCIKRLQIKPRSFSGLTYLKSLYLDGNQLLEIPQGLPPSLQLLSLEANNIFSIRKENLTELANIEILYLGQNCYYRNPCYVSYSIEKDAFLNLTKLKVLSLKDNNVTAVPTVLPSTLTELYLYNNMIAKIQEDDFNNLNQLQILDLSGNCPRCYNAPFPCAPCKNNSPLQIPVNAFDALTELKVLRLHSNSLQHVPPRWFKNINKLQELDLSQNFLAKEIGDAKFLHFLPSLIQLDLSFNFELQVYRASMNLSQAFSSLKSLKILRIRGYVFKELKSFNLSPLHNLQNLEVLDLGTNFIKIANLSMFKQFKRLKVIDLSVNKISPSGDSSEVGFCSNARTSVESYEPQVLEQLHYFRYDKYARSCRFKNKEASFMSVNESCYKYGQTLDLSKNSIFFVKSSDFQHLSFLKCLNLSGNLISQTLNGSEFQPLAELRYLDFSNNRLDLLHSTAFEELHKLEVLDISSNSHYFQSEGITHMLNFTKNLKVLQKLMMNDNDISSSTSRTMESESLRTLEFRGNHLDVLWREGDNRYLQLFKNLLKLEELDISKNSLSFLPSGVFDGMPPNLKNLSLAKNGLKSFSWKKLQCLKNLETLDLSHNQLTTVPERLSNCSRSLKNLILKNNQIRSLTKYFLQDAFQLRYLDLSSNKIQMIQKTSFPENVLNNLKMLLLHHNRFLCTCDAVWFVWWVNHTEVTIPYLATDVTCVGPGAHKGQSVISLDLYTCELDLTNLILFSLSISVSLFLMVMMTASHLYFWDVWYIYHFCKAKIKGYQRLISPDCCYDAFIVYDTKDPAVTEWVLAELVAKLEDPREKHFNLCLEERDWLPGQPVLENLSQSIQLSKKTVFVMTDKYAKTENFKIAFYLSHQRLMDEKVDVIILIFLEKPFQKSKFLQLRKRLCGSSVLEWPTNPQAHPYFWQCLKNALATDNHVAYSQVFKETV
Experimental: (§3) Exemplary aza-benzazepine compounds (azaBza) of Table 1a and comparator compounds (CBz) of Table 1b were synthesized, purified, and characterized by mass spectrometry and shown to have the expected mass. Additional experimental procedures are found in the Examples. Activity against HEK293 NFKB reporter cells expressing human TLR7 or human TLR8 was measured according to Example 202.
as §2

[5] = biological target: T2, human TLR8 (Homo sapiens, UniProt Q9NR97); experiment: HEK Reporter Assay, HEK293 NFKB reporter cells expressing human TLR8; format: cell-based; conditions: read-out: EC50 against TLR8
T2 construct: host or cells: HEK293 NFKB reporter cells
T2 sequence (Q9NR97 27-1041): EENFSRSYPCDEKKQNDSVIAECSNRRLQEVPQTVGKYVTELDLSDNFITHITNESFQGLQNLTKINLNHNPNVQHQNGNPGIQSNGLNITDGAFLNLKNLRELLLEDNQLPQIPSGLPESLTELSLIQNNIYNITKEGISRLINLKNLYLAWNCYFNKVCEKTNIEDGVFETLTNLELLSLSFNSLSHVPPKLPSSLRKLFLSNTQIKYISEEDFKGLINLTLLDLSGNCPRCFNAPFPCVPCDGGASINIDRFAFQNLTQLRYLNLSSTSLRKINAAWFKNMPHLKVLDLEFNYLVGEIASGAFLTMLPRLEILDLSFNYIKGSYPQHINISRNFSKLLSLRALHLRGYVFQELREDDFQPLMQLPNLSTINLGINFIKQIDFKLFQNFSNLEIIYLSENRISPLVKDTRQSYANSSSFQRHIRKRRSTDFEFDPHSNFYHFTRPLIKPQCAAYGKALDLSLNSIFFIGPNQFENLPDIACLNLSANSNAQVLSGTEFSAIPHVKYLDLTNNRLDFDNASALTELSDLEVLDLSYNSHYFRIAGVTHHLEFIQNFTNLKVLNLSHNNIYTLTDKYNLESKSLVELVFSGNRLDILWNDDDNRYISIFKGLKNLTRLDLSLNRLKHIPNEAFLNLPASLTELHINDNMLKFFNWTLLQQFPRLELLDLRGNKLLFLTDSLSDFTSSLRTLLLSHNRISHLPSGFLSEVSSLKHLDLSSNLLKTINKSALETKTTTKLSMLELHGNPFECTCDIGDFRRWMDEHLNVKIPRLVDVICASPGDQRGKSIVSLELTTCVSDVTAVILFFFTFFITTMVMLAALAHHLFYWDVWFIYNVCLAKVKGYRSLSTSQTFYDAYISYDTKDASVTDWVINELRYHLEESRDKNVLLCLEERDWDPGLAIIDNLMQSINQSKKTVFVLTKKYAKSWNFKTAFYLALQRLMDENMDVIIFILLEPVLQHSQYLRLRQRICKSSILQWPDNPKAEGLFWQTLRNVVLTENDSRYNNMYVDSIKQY
Experimental: as §3, §2

[6] = hydrolysis of the amidine group to lactam in formulation buffer; format: physicochemical; conditions: formulation buffer pH 6, 22° C.; read-out: t ½ in formulation buffer (pH 6) at 22° C. (converted)
Experimental: A nitrogen at the 7-position is stabilizing and slows hydrolysis in aza-benzazepine compounds with a variety of substituents at the 8-position. […] The amount of lactam is normalized for each sample at the start (to) for easier rate comparisons.
as §1

[7] = PBS (pH 7.4) at 37° C., read-out: half-lives (t½), hydrolytic degradation (converted)
[8] = PBS pH 7.4, 37° C., read-out: t ½ in PBS (pH 7.4) at 37° C. (converted)

- half-life [1, 7]: 6 days
SMILES: CCCN(OCC)C(=O)C1=Cc2ccc(-c3cnc(CN)nc3)cc2N=C(N)C1 [CBz-2, reference compound]

- degraded to lactam (CBz-5) [2]: 15%
SMILES: CCCN(OCC)C(=O)C1=Cc2ccc(-c3cnc(CNC(=O)CCOCCOCCOCCOCCOCCOCCOCCOCCOCCOCCC(=O)O)cn3)cc2N=C(N)C1 [CBz-3]

- half-life [1, 7]: 8 days
SMILES: CCCN(OCC)C(=O)C1=Cc2ccc(C(=O)NCCOC)cc2N=C(N)C1 [CBz-7, reference compound]

SMILES: CCCN(OCC)C(=O)C1=Cc2ccc(-c3cnc(CN)nc3)cc2NC(=O)C1 [CBz-8]
- activity in the HEK assay (TLR 7/8 agonist) [3]: inactive

SMILES: CCCN(OCCNC(=O)NC1CCC1)C(=O)C1=Cc2ccc(-c3cnc(CN)nc3)cc2NC(=O)C1 [CBz-9]
- activity in the HEK assay (TLR 7/8 agonist) [3]: inactive

- response against TLR7 [4]: no response
- EC50 [5]: 5500 nM
SMILES: CCCN(CCC)C(=O)C1=Cc2ccncc2N=C(N)C1 [azaBz-2]

SMILES: CCCN(OCCNC(=O)OC(C)(C)C)C(=O)C1=Cc2cnc(C(=O)O)cc2N=C(N)C1 [azaBz-3, 2-amino-4-((2-((tert-butoxycarbonyl)amino)ethoxy)(propyl)carbamoyl)-3H-pyrido[4,3-b]azepine-8-carboxylic acid]
- half-life [6]: 30 days
- half-life [1, 8]: 20 days

- half-life [6]: 50 days
- half-life [1, 8]: 70 days
SMILES: CCCN(OCCNC(=O)OC(C)(C)C)C(=O)C1=Cc2cnc(S(=O)(=O)O)cc2N=C(N)C1 [azaBz-5]

- half-life [6]: 30 days
- half-life [1, 7]: 30 days
SMILES: CCCN(OCC)C(=O)C1=Cc2cnc(-c3cnc(CN)nc3)cc2N=C(N)C1 [azaBz-6, 2-amino-8-(2-(aminomethyl)pyrimidin-5-yl)-N-ethoxy-N-propyl-3H-pyrido[4,3-b]azepine-4-carboxamide]

- half-life [6]: 100 days
- half-life [1, 8]: 100 days
SMILES: CCCN(OCC)C(=O)C1=Cc2cnc(S(=O)(=O)NCCOC)cc2N=C(N)C1 [azaBz-7]

- half-life [6]: 40 days
- half-life [1, 7]: 40 days
SMILES: CCCN(OCC)C(=O)C1=Cc2cnc(S(=O)(=O)N(C)CCOC)cc2N=C(N)C1 [azaBz-8]

- EC50 ([4]; read-out: EC50 against TLR7): 842 nM
- EC50 [5]: 196 nM
SMILES: CCCN(OCCNC(=O)OC(C)(C)C)C(=O)C1=Cc2ccncc2N=C(N)C1 [azaBz-24]
